Structures are written as SMILES. “Also recorded” adds a separate entry of the source.

The test system of series [1] is hair cycle. As to the kind of experiment: Topical treatment of mice in telogen with UK-5099: hair cycle / HFSC activation. Format: in vivo. How it is done:
(§1) FIG. 7A: Animals treated topically with UK-5099 (20 μM) show pigmentation and hair growth, indicative of entry into anagen, after 8 days of treatment. Full anagen, indicated by full coat of hair, is achieved after 14 days of treatment. […] Images shown are representative of at least 14 mice from 7 independent experiments. Scale bars indicate 100 micrometers. FIG. 7B: Graph showing time to observed phenotype in vehicle versus UK-5099 treated mice. n=6 mice per condition. Shown as mean±SEM. […] Ldh activity is indicated by purple stain; pink is nuclear fast red counterstain. Scale bars indicate 50 micrometers. FIG. 7D: Metabolomic analysis of Lactate on HFSCs isolated from UK-5099 treated skin for 48 hours; Each bar represents the average signal for each condition where n=9 mice pooled from 3 independent experiments. Shown as mean±SEM. Paired t-test was performed, p<0.05.
(§2) Quantification of the hair cycle across at least 6 pairs of animals (vehicle vs UK-5099) indicated a strong acceleration of the hair cycle, in as few as 6-9 days (FIG. 7B).

In series [2] the test system is Ldh activity in HFSCs and the interfollicular epidermis. As to the kind of experiment: Ldh enzyme activity assay in the epidermis of topically treated animals. It is filed as in vivo, mice. As to conditions: topical, 48 hours during telogen. How it is done: as §1
To determine whether Ldha expression patterns correlate with activity of the Ldh enzyme, a colorimetric-based enzymatic assay was used to assess Ldh activity capacity in situ. Typically performed on protein lysates or aliquots with a plate reader, the Ldh activity assay was adapted to work in situ on frozen tissue sections. […]
as §2

The subject of series [3] is lactate in sorted HFSCs. Kind of series: Metabolomic analysis of lactate on HFSCs isolated from treated skin. Format: in vivo, mice. As to conditions: topical application, skin treated for 48 hours. How it is done:
as §1, §2

[4] abbreviates: topical treatment of animals in telogen (day 50).

On to `N#C/C(=C\c1cn(-c2ccccc2)c2ccccc12)C(=O)O` [UK-5099, (E)-2-Cyano-3-(1-phenyl-1H-indol-3-yl)acrylic acid], for which, in series [1] (setting [4]), the “effect on the hair cycle” value is recorded as “robust acceleration of the hair cycle” and the “effect on the interfollicular epidermis (proliferation)” value is “minor hyperproliferation of the interfollicular epidermis”. The “time to full anagen, indicated by full coat of hair” value in series [1] (topical, 20 μM) came to 14 days. Besides, in series [1] (topical, 20 μM, at 8 weeks, vehicle remained in telogen), the “skin pathology (entry into anagen)” value is on record as “enter an accelerated anagen”. For the same molecule, in series [1] (topical, 20 μM, vehicle shows none even after 12 days), the “time to pigmentation and hair growth, indicative of entry into anagen” value is given as 8 days. Besides, in series [1] (topical, at least 6 pairs of animals, vehicle vs UK-5099), the “time in which acceleration of the hair cycle is seen” value fell in the range of 6 to 9 days. Also, the “Ldh activity in HFSCs and interfollicular epidermis” value in series [2] is listed as “Ldh enzyme activity also seen in interfollicular epidermis; also recorded: increased Ldh activity”. For the same molecule, the “total levels of lactate in sorted HFSCs” value in series [3] is listed as “increases total levels of lactate”.

The values are drawn from patent publication US20220048908A1, “COMPOSITIONS AND METHODS FOR MODULATING HAIR GROWTH” (The Regents of the University of California, priority 2019, published 2022).
